Results as given in patent US7608712B2, “Pyridine imidazoles and aza-indoles as progesterone receptor modulators” (Janssen Pharmaceutica N.V., priority 2004, dated 2009).
pEC50, pIC50: −log10 of the molar value.

tested on: T47D human breast cancer cells; assay: T47D alkaline phosphatase assay (In Vitro Test); assay type: cell-based; conditions: Homo sapiens, T47D
Experimental: T47D human breast cancer cells are grown in RPMI medium without phenol red (Invitrogen) containing 10% (v/v) heat-inactivated fetal bovine serum (FBS; Hyclone), 1% (v/v) penicillin-streptomycin (Invitrogen), 1% (w/v) glutamine (Invitrogen), and […] insulin (Sigma). Incubation conditions are 37 °C in a humidified 5% (v/v) carbon dioxide environment. For assay, the cells are plated in 96-well tissue culture plates at 10,000 cells per well in assay medium [RPMI medium without phenol red (Invitrogen) containing 5% (v/v) charcoal-treated FBS (Hyclone) and 1% (v/v) penicillin-streptomycin (Invitrogen)]. Two days later, the medium is decanted and the compounds are added in a final concentration of 0.1% (v/v) dimethyl sulfoxide in fresh assay medium. Twenty-four hours later, an alkaline phosphatase assay is performed using a SEAP kit (BD Biosciences Clontech, Palo Alto, Calif.). Briefly, the medium is decanted and the cells are fixed for 30 minutes at room temperature with 5% (v/v) formalin (Sigma). The cells are washed once with room temperature Hank's buffered saline solution (Invitrogen). Equal volumes (0.05 mL) of 1× Dilution Buffer, Assay Buffer and 1:20 substrate/enhancer mixture are added. After 1-hour incubation at room temperature in the dark, the lysate is transferred to a white 96-well plate (Dynex) and luminescence is read using a LuminoSkan Ascent (Thermo Electron, Woburn, Mass.).

| SMILES | pIC50 |
| --- | --- |
| CC1(C)C(=O)Nc2ncc(-c3cccc(F)c3)cc21 [Example 31, 5-(3-Fluoro-phenyl)-3,3-dimethyl-1,3-dihydro-pyrrolo[2,3-b]pyridin-2-one] | 5.35 |

same assay, conditions: Homo sapiens, T47D, read-out: % inh.

| SMILES | inhibition at 3 µM [%] | inhibition at 10 µM [%] |
| --- | --- | --- |
| CC1(C)C(=O)Nc2ncc(-c3cccc(F)c3)cc21 [Example 31, 5-(3-Fluoro-phenyl)-3,3-dimethyl-1,3-dihydro-pyrrolo[2,3-b]pyridin-2-one] | 95 | 92 |

same assay, conditions: Homo sapiens, T47D; @ 3 uM; read-out: % inh.

| SMILES | inhibition at 3 µM [%] |
| --- | --- |
| O=C1Nc2ncc(-c3cccc(F)c3)cc2C12CCCCC2 [Example 32, 5-(3-Fluoro-phenyl)-3,3-spiro[cyclohexane]-1,3-dihydro-pyrrolo[2,3-b]pyridin-2-one] | 58 |

same assay, conditions: Homo sapiens, T47D; @ 10 uM; read-out: % inh.

| SMILES | inhibition at 10 µM [%] |
| --- | --- |
| O=C1Nc2ncc(-c3cccc(F)c3)cc2C12CCCCC2 [Example 32, 5-(3-Fluoro-phenyl)-3,3-spiro[cyclohexane]-1,3-dihydro-pyrrolo[2,3-b]pyridin-2-one] | 58 |

same assay, conditions: Homo sapiens, T47D; Table 4; read-out: IC50

| SMILES | pIC50 |
| --- | --- |
| O=C1Nc2ncc(-c3cccc(F)c3)cc2C12CCCCC2 [Example 32, 5-(3-Fluoro-phenyl)-3,3-spiro[cyclohexane]-1,3-dihydro-pyrrolo[2,3-b]pyridin-2-one] | 5.15 |

same assay, conditions: Homo sapiens, T47D; activation (footnote to Table 3)

| SMILES | pEC50 |
| --- | --- |
| O=C1N=C2C=CC(c3ccc(Cl)c(Cl)c3)=CN2C12CCCC2 [Example 28, 6-(3,4-Dichloro-phenyl)-3,3-spiro[pentane]-imidazo[1,2-a]pyridin-2-one] | 5.71 |

same assay, conditions: Table 3; test concentration not given

| SMILES | % inh. [%] |
| --- | --- |
| N#Cc1cccc(C2=CN3C(=NC(=O)C34CCCC4)C=C2)c1 [Example 25, 6-(3-cyano-phenyl)-3,3-spiro[pentane]-imidazo[1,2-a]pyridin-2-one] | 2 |
| CC1(C)C(=O)N=C2C=CC(c3cccc(C(F)(F)F)c3)=CN21 [Example 9, 3,3-Dimethyl-6-(3-trifluoromethyl-phenyl)-imidazo[1,2-a]pyridin-2-one] | 17 |
| O=C1N=C2C=CC(c3cc(F)cc(F)c3)=CN2C12CCCCC2 [Example 21, 6-(3,5-Difluoro-phenyl)-3,3-spiro[cyclohexane]-imidazo[1,2-a]pyridin-2-one] | 99 |
| O=C1N=C2C=CC(c3cccc([N+](=O)[O-])c3)=CN2C12CCCCC2 [Example 18, 6-(3-nitro-phenyl)-3,3-spiro[cyclohexane]-imidazo[1,2-a]pyridin-2-one] | 98 |
| O=C1N=C2C=CC(c3ccc(Cl)c(Cl)c3)=CN2C12CCCC2 [Example 28, 6-(3,4-Dichloro-phenyl)-3,3-spiro[pentane]-imidazo[1,2-a]pyridin-2-one] | 22 |
| O=C1N=C2C=CC(Cl)=CN2C12CCCCC2 [Example 6, 6-Chloro-spiro[cyclohexane]-imidazo[1,2-a]pyridin-2-one] | 42 |
| O=C1N=C2C=CC(c3ccc(F)c(Cl)c3)=CN2C12CCCC2 [Example 30, 6-(3-Chloro-4-fluoro-phenyl)-3,3-spiro[pentane]-imidazo[1,2-a]pyridin-2-one] | 21 |
| O=C1N=C2C=CC(c3ccc(Cl)c(Cl)c3)=CN2C12CCCCC2 [Example 22] | 88 |
| O=C1N=C2C=CC(Br)=CN2C12CCCC2 [Example 1-C2, 6-Bromo-3,3-spiro[cyclopentane]-imidazo[1,2-a]pyridin-2-one] | 35 |
| O=C1N=C2C=CC(c3cc(C(F)(F)F)cc(C(F)(F)F)c3)=CN2C12CCCC2 [Example 29, 6-(3,5-Bis-trifluoromethyl-phenyl)-3,3-spiro[pentane]-imidazo[1,2-a]pyridin-2-one] | 25 |
| CC1(C)C(=O)N=C2C=CC(Br)=CN21 [Example 1-C1, 6-Bromo-3,3-dimethyl-imidazo[1,2-a]pyridin-2-one] | 53 |
| O=C1N=C2C=CC(c3cccc(C(F)(F)F)c3)=CN2C12CCCCC2 [Example 19, 6-(3-trifluoromethyl-phenyl)-3,3-spiro[cyclohexane]-imidazo[1,2-a]pyridin-2-one] | 97 |
| O=C1N=C2C=CC(c3cccc(F)c3)=CN2C12CCCC2 [Example 26, 6-(3-Fluoro-phenyl)-3,3-spiro[pentane]-imidazo[1,2-a]pyridin-2-one] | 2 |
| CC1(C)C(=O)N=C2C=CC(c3cccc(Cl)c3)=CN21 [Example 2, 6-(3-Chloro-phenyl)-3,3-dimethyl-imidazo[1,2-a]pyridin-2-one] | 15 |
| COc1cccc(C2=CN3C(=NC(=O)C34CCCCC4)C=C2)c1 [Example 16, 6-(3-Methoxy-phenyl)-3,3-spiro[cyclohexane]-imidazo[1,2-a]pyridin-2-one] | 01 |
| CC1(C)C(=O)N=C2C=CC(c3cc(C(F)(F)F)cc(C(F)(F)F)c3)=CN21 [Example 11, 6-(3,5-Bis-trifluoromethyl-phenyl)-3,3-dimethyl-imidazo[1,2-a]pyridin-2-one] | 19 |

| SMILES | % inh. [%] |
| --- | --- |
| O=C1N=C2C=CC(c3cccc([N+](=O)[O-])c3)=CN2C12CCCC2 [Example 27, 6-(3-nitro-phenyl)-3,3-spiro[pentane]-imidazo[1,2-a]pyridin-2-one] | 86 |
| COc1cccc(C2=CN3C(=NC(=O)C3(C)C)C=C2)c1 [Example 12, 6-(3-Methoxy-phenyl)-3,3-dimethyl-imidazo[1,2-a]pyridin-2-one] | 3.1 |
| O=C1N=C2C=CC(c3cccc(F)c3)=CN2C12CCCCC2 [Example 15, 6-(3-Fluoro-phenyl)-3,3-spiro[cyclohexane]-imidazo[1,2-a]pyridin-2-one] | 0 |
| CC1(C)C(=O)N=C2C=CC(c3cccc([N+](=O)[O-])c3)=CN21 [Example 8, 3,3-Dimethyl-6-(3-nitro-phenyl)-imidazo[1,2-a]pyridin-2-one] | 33 |
| O=C1N=C2C=CC(c3cccc(Cl)c3)=CN2C12CCCCC2 [Example 3, 6-(3-chloro-phenyl)-3,3-spiro[cyclohexane]-imidazo[1,2-a]pyridin-2-one] | 104 |
| CC1(C)C(=O)N=C2C=CC(c3ccc(F)cc3F)=CN21 [Example 10, 6-(2,4-Difluoro-phenyl)-3,3-dimethyl-imidazo[1,2-a]pyridin-2-one] | 29 |
| O=C1N=C2C=CC(c3ccc(F)cc3F)=CN2C12CCCCC2 [Example 23, 6-(2,4-Difluoro-phenyl)-3,3-spiro[cyclohexane]-imidazo[1,2-a]pyridin-2-one] | 96 |
| N#Cc1cccc(C2=CN3C(=NC(=O)C34CCCCC4)C=C2)c1 [Example 20, 6-(3-cyano-phenyl)-3,3-spiro[cyclohexane]-imidazo[1,2-a]pyridin-2-one] | 96 |
| CC1(C)C(=O)N=C2C=CC(c3cccc(C#N)c3)=CN21 [Example 4, 3-(3,3-Dimethyl-2-oxo-2,3-dihydro-imidazo[1,2-a]pyridin-6-yl)-benzonitrile] | 19 |
| CC1(C)C(=O)N=C2C=CC(c3cc(F)cc(F)c3)=CN21 [Example 7, 6-(3,5-Difluoro-phenyl)-3,3-dimethyl-imidazo[1,2-a]pyridin-2-one] | 40 |
| CC1(C)C(=O)N=C2C=CC(Cl)=CN21 [Example 5, 6-Chloro-3,3-dimethyl-imidazo[1,2-a]pyridin-2-one] | 31 |
| CC1(C)C(=O)N=C2C=CC(c3cccc(F)c3)=CN21 [Example 13, 6-(3-Fluoro-phenyl)-3,3-dimethyl-imidazo[1,2-a]pyridin-2-one] | 14 |
| O=C1N=C2C=CC(c3cccc(Cl)c3)=CN2C12CCCC2 [Example 24, 6-(3-chloro-phenyl)-3,3-spiro[pentane]-imidazo[1,2-a]pyridin-2-one] | 1 |
| O=C1N=C2C=CC(c3cc(C(F)(F)F)cc(C(F)(F)F)c3)=CN2C12CCCCC2 [Example 17, 6-(3,5-Bis-trifluoromethyl-phenyl)-3,3-spiro[cyclohexane]-imidazo[1,2-a]pyridin-2-one] | 04 |
| CC1(C)C(=O)N=C2C=CC(c3ccccc3Cl)=CN21 [Example 14, 6-(2-Chloro-phenyl)-3,3-dimethyl-imidazo[1,2-a]pyridin-2-one] | 0 |
